{
  "source": "patent US8124655B2",
  "about": "“Use of LR-90 and LR-102 to overcome insulin resistance” (City of Hope, priority 2007, dated 2012)",
  "key": {"[1]": {"test_system": "Zucker diabetic fatty rats (ZDF, fa/fa)", "assay": "Kidney histology, gene and protein expression and lipid peroxidation (Example 2)", "assay_type": "in vivo, rat", "procedure": "FIG. 9. Representative photomicrographs of immunohistochemicals stainings of kidney tissues. A. Periodic Acid-Metheamine Silver (PAMS); B, Masson'S Trichrome; C, AGE; and D, RAGE stainings of kidneys from lean, ZDF and LR-90 treated ZDF rats.\nFIG. 10. mRNA expression of TGF-B1, CTGF, fibronectin and RAGE in the kidney cortex. Renal cortices from each treatment group were analyzed by for TGF-B1, CTGF, fibronectin and RAGE gene expression by RT-PCR. A. Representative gel profiles; B, Quantitative results of band densities. 18s/18 sII were used as internal controls.\nFIG. 11. Protein expression of TGF-B1 and CTGF in the kidney cortex. Renal cortices from each treatment group were analyzed by for TGF-B1 and CTGF protein expression by Western blotting and immunostaining with specific antibodies. Representative gel profiles and densiitometric quantitation of protein bands. *P<0.01 vs. lean, **P<0.01 vs. ZDF\nFIG. 12. Representative immunohistochemical staining for TGF-B1 and CTGF in the kidney cortex. Renal cortices from each treatment group were probed with specific antibodies against TGF-β1 and CTGF.\nFIG. 13. Effect of LR-90 on kidney lipid peroxidaton. A. Kidney lipid peroxides were analyzed by measuring malondialdehyde (MDA) in tissue homogenates using the TBARS method. B. Correlation of lipid peroxidation with urinary albumin excretion rates. *P<0.05 vs. ZDF, **P<0.01 vs. ZDF.\n(§1) The present Example presents the results of an investigation of the effects of LR-90, an inhibitor of AGE/ALE formation, in male Zucker diabetic fatty rats (ZDF, fa/fa) fed with Purina 5008 diet until 40 weeks of age, and their hetorozygous lean littermates (ZDF fa/+) as non-hyperglycemic controls. LR-90 at 50 mg/L of drinking water was given to a subgroup of ZDF rats after the rats developed spontaneous diabetes at 13 weeks of age. At 40 weeks of age, and before killing the animals, their weight was measured; HbA1c, plasma glucose, insulin, triglycerides, cholesterol, CRP and urinary albumin and creatinine concentrations were measured. After euthanizing all animals, organs such as the kidneys, eyeballs, liver, heart, aortae and pancreas were dissected and subjected to immunohistochemical staining, RT-PCR, Western blotting and microscopy."}, "[2]": {"test_system": "Zucker diabetic fatty rats (ZDF, fa/fa)", "assay": "Metabolic data of ZDF rats treated with LR-90 or LR-102 (Example 2)", "assay_type": "in vivo, rat", "procedure": "as §1"}, "[3]": {"test_system": "Zucker diabetic fatty (ZDF) rat", "assay": "Metabolic parameters of ZDF rats treated with LR-90 (Example 1)", "assay_type": "in vivo", "procedure": "As noted, previous studies have shown that LR-90, a new inhibitor of AGE formation, prevented the development of experimental type 1 diabetic nephropathy. In the present Example, the effects of LR-90 were examined in the Zucker diabetic fatty (ZDF) rat, a model of type 2 diabetes and metabolic syndrome, and the mechanisms by which it may protect against renal injury were investigated. In this Example, male ZDF rats were treated without or with LR-90 from age 13 to 40 weeks. Metabolic and kidney functions and renal histology were evaluated. AGE accumulation and the production of the receptor for AGE (AGER) were measured. Profibrotic growth factors, extracellular matrix proteins and intracellular signalling pathways associated with glomerular and tubular damage were also analysed. […] RenalAGE, AGER and lipid peroxidation were all attenuated by LR-90. […] This was associated with reduction in glomerulosclerosis and tubulointerstitial fibrosis, concomitant with marked inhibition of renal overproduction of TGF-β1, connective tissue growth factor, fibronectin and collagen IV.\nAll animal studies were carried out in compliance with policies outlined in The Guide for the Care and Handling of Laboratory Animals (NIH Publication No. 85-23) that have been approved by the City of Hope Animal Care Committee. Male ZDF (fa/fa) and male Zucker lean (+/+; ZL) rats were obtained at the age of 5 weeks from Charles River Laboratories (Wilmington, Mass., USA). Animals were maintained with free access to Purina 5008 rat chow (Purina Mills, St Louis, Mo., USA) and tap water. All animals were individually housed in a controlled room with a 12 h dark-light cycle. At the age of 13 weeks, the animals were divided into the following groups: (1) ZL rats (n=6); (2) ZDF rats without treatment (n=6); and (3) ZDF rats treated with LR-90 at 50 mg/l in their drinking water (ZDF90, n=6). The dose of LR-90 was chosen after previous experiments with type 1 diabetic nephropathy. Food, water intake, body weight and blood glucose levels were monitored periodically. Systolic blood pressure was measured by tail-cuff plethysmography (CODA2 Blood Pressure System; Kent Scientific, Torrington, Conn., USA). Animals were killed at the age of 40 weeks by over-anaesthetisation with isoflurane and cardiac puncture. Blood samples were collected from each animal and transferred accordingly into heparinised vacutainer tubes; they were later centrifuged (1,500×g for 10 min at 4° C.) for plasma isolation. The kidneys were removed immediately, rinsed in PBS and weighed, after which specimens were snap-frozen in liquid nitrogen or fixed in 10% (vol./vol.) neutral buffered formalin for further biochemical and histological analyses. Plasma glucose, lipids and Nε-(carboxymethyl)lysine-AGE Plasma glucose was measured using a glucose analyzer (2300 STAT; YSI, Yellowsprings, Ohio, USA). Total plasma triacylglycerol and cholesterol concentrations were quantified using the Vitros 250 Chemistry System (Johnson & Johnson, Rochester, N.Y., USA). Nε-(Carboxymethyl)lysine (CML)-AGE was liberated from plasma proteins by acid hydrolysis and then measured by ion-pair reversed-phase liquid chromatography/tandem mass spectrometry as described previously."}, "[4]": {"details": "ZDF rats at 40 weeks of age, Mean ± SEM"}, "[5]": {"details": "ZDF rats, LR-90 50 mg/l in drinking water, at 40 weeks of age, mean ± SEM"}},
  "data": [
    {"smiles": "CC(C)(Oc1ccc(NC(=O)Nc2ccc(Cc3ccc(NC(=O)Nc4ccc(OC(C)(C)C(=O)O)cc4)c(Cl)c3)cc2Cl)cc1)C(=O)O", "note": "[LR-90, methylene bis[4,4′-(2-chlorophenylureidophenoxyisobutyric acid)]]", "values": [
      {"measurement": "reduction of kidney lipid peroxidation", "setting": "[1]; ZDF animals, MDA by TBARS, Example 2", "value": "~40", "unit": "%"},
      {"measurement": "glomerulosclerosis, tubular degeneration and collagen deposition", "setting": "[1]; kidney of ZDF rats, FIGS. 9a and b", "value": "prevented"},
      {"measurement": "renal AGE and RAGE accumulation", "setting": "[1]; kidney of ZDF rats, FIGS. 9c and d", "value": "reduced"},
      {"measurement": "TGF-β1 and CTGF gene and protein expression, fibronectin and RAGE mRNA", "setting": "[1]; kidneys of ZDF rats, FIGS. 10, 11 and 12", "value": "significantly attenuated"},
      {"measurement": "Plasma glucose", "setting": "[2]; ZDF rats at 40 weeks of age, drug in drinking water, Mean ± SEM", "value": "25 ± 2.3", "unit": "mM"},
      {"measurement": "Cholesterol", "setting": "[2]; [4]", "value": "244 ± 13", "unit": "mg/dL"},
      {"measurement": "HbA1c", "setting": "[2]; [4]", "value": "2.89 ± 0.07", "unit": "%"},
      {"measurement": "Plasma CRP", "setting": "[2]; [4]", "value": "0.58 ± 0.09", "unit": "mg/mL"},
      {"measurement": "Plasma insulin, ELISA", "setting": "[2]; [4]", "value": "0.64 ± 0.10", "unit": "ng/mL"},
      {"measurement": "Plasma insulin, RIA", "setting": "[2]; [4]", "value": "0.63 ± 0.04", "unit": "ng/mL"},
      {"measurement": "Triglycerides", "setting": "[2]; [4]", "value": "384 ± 51", "unit": "mg/dL"},
      {"measurement": "Urinary Albumin", "setting": "[2]; [4]", "value": "27.8 ± 4.8", "unit": "mg/24 h"},
      {"measurement": "effect on hyperglycemia", "setting": "[2]; ZDF rats, Example 2", "value": "no effect"},
      {"measurement": "effect on hyperlipidemia", "setting": "[2]; ZDF rats, Example 2", "value": "significantly reduced"},
      {"measurement": "increase in CRP levels", "setting": "[2]; ZDF rats, Example 2", "value": "attenuated"},
      {"measurement": "effect on blood pressure", "setting": "[3]; ZDF rats, Example 1", "value": "modest, but not statistically significant effects"},
      {"measurement": "effect on hyperglycaemia", "setting": "[3]; ZDF rats, Example 1", "value": "modest, but not statistically significant effects"},
      {"measurement": "Plasma Cholesterol", "setting": "[3]; [5]", "value": "6.3 ± 0.3", "unit": "mmol/L"},
      {"measurement": "Plasma Triglycerides", "setting": "[3]; [5]", "value": "4.4 ± 0.6", "unit": "mmol/L"},
      {"measurement": "Plasma glucose", "setting": "[3]; [5]", "value": "25.0 ± 2.3", "unit": "mmol/L"},
      {"measurement": "Mean Systolic BP", "setting": "[3]; ZDF rats, LR-90 50 mg/l in drinking water, at 40 weeks of age, tail-cuff, mean ± SEM", "value": "144 ± 6", "unit": "mm Hg"},
      {"measurement": "reduction of plasma cholesterol", "setting": "[3]; vs untreated ZDF rats, p<0.05", "value": "~30", "unit": "%"},
      {"measurement": "reduction of plasma triacylglycerol", "setting": "[3]; vs untreated ZDF rats, p<0.05", "value": "~55", "unit": "%"}
    ]}
  ]
}
